For experiment [1], the system named is Abeta 40. Put plainly: In vivo inhibition of beta-secretase: Abeta 40 reduction in CSF and brain of the rat. Conditions: after 4 hrs; for inhibition in vivo at 10 mg/kg: 10 mpk; for % reduction of rat CSF levels / % reduction of rat brain levels: at 30 mpk. In a few lines: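 Male Sprague Dawley rats (200 g) were given test compound by oral gavage in 2% HPMC, 1% Tween80, pH 2.2, while a vehicle-only group served as control. After sacrifice, brains were homogenized in 0.2% DEA/50 mM NaCl or 0.5% TritonX-100 in Tris-buffered saline and centrifuged at 355,000 g, 4° C. for 30 minutes. Abeta40 in CSF and brain supernatants was quantified by ECL sandwich ELISA (biotinylated-4G8 capture, Fab40 detection) as percent reduction versus vehicle.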

Experiment [2] deals with BACE (Homo sapiens, UniProt P56817). Put plainly: In vitro enzymatic BACE FRET assay. Format: biochemical. Conditions: average IC50, enzyme assay; read-out: BACE 1 FRET assay. Summed up:
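BACE (0.2 nM) preincubated 1 h with serially diluted inhibitors in 0.05 M acetate pH 4.2, 10% DMSO, 100 uM genapol. FRET peptide substrate (50 nM) added, 1 h incubation, then stopped with Tris to neutral pH. Fluorescence from cleavage read at […].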

In experiment [3] the test system is Aβ40. As to the kind of experiment: In vitro BACE cell-based assay (Aβ40 sandwich ELISA, cells stably expressing APP). As to conditions: Homo sapiens. In a few lines: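 APP-stably-expressing cells, grown 24 h in DMEM/10% FBS, received 10-point compound doses starting at 100 μM or 10 μM (0.1% DMSO final). Secreted Aβ40 in supernatants measured by sandwich ELISA with time-resolved europium fluorescence; IC50 from percent inhibition versus concentration.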

The mark [4] stands for this setting: Abeta 40, rat CSF, read-out: % reduction of rat CSF levels at 10 pmk.
Where [5] appears, read: Abeta 40, rat brain, read-out: % reduction of rat brain levels at 10 mpk.
[6] abbreviates: HEK293, average IC50, cell assay, HEK cells.
The mark [7] stands for this setting: HEK293, average IC50, read-out: HEK cell assay.

Where two headings read alike, the source gives them in different places.

Chain of BACE (P56817 46-501, species assumed): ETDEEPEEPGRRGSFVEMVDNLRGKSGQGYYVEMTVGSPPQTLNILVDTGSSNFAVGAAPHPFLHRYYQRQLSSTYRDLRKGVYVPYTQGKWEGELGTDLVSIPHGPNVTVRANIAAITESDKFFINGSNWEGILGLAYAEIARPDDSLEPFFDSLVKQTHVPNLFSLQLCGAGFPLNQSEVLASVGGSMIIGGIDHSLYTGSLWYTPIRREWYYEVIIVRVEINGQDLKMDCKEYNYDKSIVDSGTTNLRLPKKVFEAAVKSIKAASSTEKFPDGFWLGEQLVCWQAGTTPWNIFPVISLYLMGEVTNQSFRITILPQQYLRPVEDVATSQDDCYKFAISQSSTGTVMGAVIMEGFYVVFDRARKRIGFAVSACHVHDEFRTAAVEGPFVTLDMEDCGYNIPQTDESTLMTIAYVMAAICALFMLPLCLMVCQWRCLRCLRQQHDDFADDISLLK

Turning to `NC1=N[C@@]2(CCO1)c1cc(-c3cncc(F)c3)ccc1Oc1cnc(-c3ccnc(F)c3)cc12` [Example 145, (S)-7-(5-fluoropyridin-3-yl)-3-(2-fluoropyridin-4-yl)-5′,6′-dihydrospiro[chromeno[2,3-c]pyridine-5,4′-[1,3]oxazin]-2′-amine], the inhibition in vivo at 10 mg/kg in experiment [1] (setting [4]) was 78%; in experiment [1] (setting [5]), 59%. Moreover, the IC50 in experiment [2] worked out at 5 nM; in experiment [3] (setting [6]), 4 nM.
For `NC1=N[C@@]2(CCO1)c1cc(-c3cncc(F)c3)ccc1Oc1cnc(C3=CCCOC3)cc12` [Example 146, (S)-3-(5,6-dihydro-2H-pyran-3-yl)-7-(5-fluoropyridin-3-yl)-5′,6′-dihydrospiro[chromeno[2,3-c]pyridine-5,4′-[1,3]oxazin]-2′-amine], the values for the inhibition in vivo at 10 mg/kg in experiment [1] (setting [4]) and in experiment [1] (setting [5]) were 75% and 62%, respectively. For the same compound, the IC50 in experiment [2] came out at 2.2 nM; in experiment [3] (setting [6]), 1.5 nM.
Regarding `NC1=N[C@@]2(CCO1)c1cc(-c3cccnc3F)ccc1Oc1cnc(-c3ccnc(F)c3)cc12` [Example 149, (S)-7-(2-fluoropyridin-3-yl)-3-(2-fluoropyridin-4-yl)-5′,6′-dihydrospiro[chromeno[2,3-c]pyridine-5,4′-[1,3]oxazin]-2′-amine], the inhibition in vivo at 10 mg/kg in experiment [1] (setting [4]) is 80%; in experiment [1] (setting [5]), 62%. For the same compound, the IC50 came out at 4.8 nM in experiment [2] and 3.8 nM in experiment [3] (setting [6]).
`NC1=N[C@@]2(CCO1)c1cc(-c3cccnc3F)ccc1Oc1cnc(C3=CCCOC3)cc12` [Example 153, (S)-3-(5,6-dihydro-2H-pyran-3-yl)-7-(2-fluoropyridin-3-yl)-5′,6′-dihydrospiro[chromeno[2,3-c]pyridine-5,4′-[1,3]oxazin]-2′-amine]: the inhibition in vivo at 10 mg/kg in experiment [1] (setting [4]) was determined as 78%; in experiment [1] (setting [5]), 64%. Besides, the IC50 was 2 nM in experiment [2] and 2.6 nM in experiment [3] (setting [6]).
Turning to `CC(C)(C)C#Cc1cc2c(cn1)Oc1ccc(-c3cccnc3F)cc1[C@@]21CCOC(N)=N1` [Example 154, (S)-3-(3,3-dimethylbut-1-ynyl)-7-(2-fluoropyridin-3-yl)-5′,6′-dihydrospiro[chromeno[2,3-c]pyridine-5,4′-[1,3]oxazin]-2′-amine], the inhibition in vivo at 10 mg/kg in experiment [1] (setting [4]) was 57%; in experiment [1] (setting [5]), 37%. The IC50 was 5.8 nM in experiment [2] and 5 nM in experiment [3] (setting [6]).
Regarding `NC1=N[C@@]2(CCO1)c1cc(-c3cccnc3F)ccc1Oc1cnc(-c3cncc(F)c3)cc12` [Example 155, (5S)-7-(2-fluoro-3-pyridinyl)-3-(5-fluoro-3-pyridinyl)-5′,6′-dihydrospiro[chromeno[2,3-c]pyridine-5,4′-[1,3]oxazin]-2′-amine], the inhibition in vivo at 10 mg/kg stood at 68% in experiment [1] (setting [4]) and 53% in experiment [1] (setting [5]). Moreover, the IC50 in experiment [2] amounted to 3.8 nM; in experiment [3] (setting [6]) it was 6.2 nM.
With `NC1=N[C@@]2(CCO1)c1cc(-c3cccnc3)ccc1Oc1c(F)cc(C3=CCOCC3)cc12` [Example 156, (4S)-2′-(3,6-dihydro-2H-pyran-4-yl)-4′-fluoro-7′-(3-pyridinyl)-5,6-dihydrospiro[1,3-oxazine-4,9′-xanthen]-2-amine], the figures for the inhibition in vivo at 10 mg/kg in experiment [1] (setting [4]) and in experiment [1] (setting [5]) were 27% and 8%, respectively. In addition, the IC50 in experiment [2] is 4.8 nM; in experiment [3] (setting [6]), 4.2 nM.
Turning to `NC1=N[C@@]2(CCO1)c1cc(-c3cccnc3F)ccc1Oc1c(F)cc(C3=CCOCC3)cc12` [Example 163, (S)-2′-(3,6-dihydro-2H-pyran-4-yl)-4′-fluoro-7′-(2-fluoropyridin-3-yl)-5,6-dihydrospiro[[1,3]oxazine-4,9′-xanthen]-2-amine], the values for the inhibition in vivo at 10 mg/kg in experiment [1] (setting [4]) and in experiment [1] (setting [5]) were 52% and 28%, respectively. In addition, the figures for the IC50 in experiment [2] and in experiment [3] (setting [7]) were 2.6 nM and 6 nM, respectively.
Take `NC1=N[C@@]2(CCO1)c1cc(-c3cccnc3)ccc1Oc1c(F)cc(C3=CCCOC3)cc12` [Example 164, (S)-2′-(5,6-dihydro-2H-pyran-3-yl)-4′-fluoro-7′-(pyridin-3-yl)-5,6-dihydrospiro[[1,3]oxazine-4,9′-xanthen]-2-amine]: the inhibition in vivo at 10 mg/kg is 35% in experiment [1] (setting [4]) and 12% in experiment [1] (setting [5]). Further, the IC50 came out at 2.8 nM in experiment [2] and 2.7 nM in experiment [3] (setting [7]).
The matching figures for `NC1=N[C@@]2(CCO1)c1cc(-c3cccnc3F)ccc1Oc1c(F)cc(-c3ccncc3)cc12` [Example 166, (S)-4′-fluoro-7′-(2-fluoropyridin-3-yl)-2′-(pyridin-4-yl)-5,6-dihydrospiro[[1,3]oxazine-4,9′-xanthen]-2-amine]: 42%, 25%, 6 nM and 8.2 nM.
Turning to `NC1=N[C@@]2(CCO1)c1cc(-c3cccnc3F)ccc1Oc1c(F)cc(-c3cccnc3)cc12` [Example 168, (S)-4′-fluoro-7′-(2-fluoropyridin-3-yl)-2′-(pyridin-3-yl)-5,6-dihydrospiro[[1,3]oxazine-4,9′-xanthen]-2-amine], the inhibition in vivo at 10 mg/kg stood at 44% in experiment [1] (setting [4]) and 18% in experiment [1] (setting [5]). The IC50 in experiment [2] turned out to be 3.5 nM; in experiment [3] (setting [7]) it was 6.3 nM.
Turning to `NC1=N[C@@]2(CCO1)c1cc(-c3cccnc3F)ccc1Oc1c(F)cc(C3=CCCOC3)cc12` [Example 173, (S)-2′-(5,6-dihydro-2H-pyran-3-yl)-4′-fluoro-7′-(2-fluoropyridin-3-yl)-5,6-dihydrospiro[[1,3]oxazine-4,9′-xanthen]-2-amine], the inhibition in vivo at 10 mg/kg in experiment [1] (setting [4]) worked out at 40%; in experiment [1] (setting [5]), 14%. Moreover, the IC50 was 1.1 nM in experiment [2] and 2.9 nM in experiment [3] (setting [7]).
For `CC(C)(F)COc1cc(F)c2c(c1)[C@]1(CCOC(N)=N1)c1cc(-c3cccnc3)ccc1O2` [Example 176, (S)-4′-fluoro-2′-(2-fluoro-2-methylpropoxy)-7′-(pyridin-3-yl)-5,6-dihydrospiro[[1,3]oxazine-4,9′-xanthen]-2-amine], the inhibition in vivo at 10 mg/kg came out at 30% in experiment [1] (setting [4]) and 13% in experiment [1] (setting [5]). Moreover, the IC50 amounted to 6.1 nM in experiment [2] and 8.5 nM in experiment [3] (setting [7]).
In the case of `CC(C)(F)COc1cc(F)c2c(c1)[C@]1(CCOC(N)=N1)c1cc(-c3cccnc3F)ccc1O2` [Example 182, (S)-4′-fluoro-2′-(2-fluoro-2-methylpropoxy)-7′-(2-fluoropyridin-3-yl)-5,6-dihydrospiro[[1,3]oxazine-4,9′-xanthen]-2-amine], the values for the inhibition in vivo at 10 mg/kg in experiment [1] (setting [4]) and in experiment [1] (setting [5]) were 59% and 30%, respectively. Besides, the IC50 in experiment [2] worked out at 2.5 nM; in experiment [3] (setting [7]) it was 4.1 nM.
The matching figures for `NC1=N[C@@]2(CCO1)c1cc(-c3cccnc3F)ccc1Oc1c(F)cc(N3CCOCC3)cc12` [Example 184, (S)-4′-fluoro-7′-(2-fluoropyridin-3-yl)-2′-morpholino-5,6-dihydrospiro[[1,3]oxazine-4,9′-xanthen]-2-amine]: 19%, 12%, 4.8 nM and 6.9 nM.
With `NC1=N[C@@]2(CCO1)c1cc(-c3cccnc3F)ccc1Oc1c(F)cc(N3CCC(F)(F)CC3)cc12` [Example 185, (4S)-2′-(4,4-difluoro-1-piperidinyl)-4′-fluoro-7′-(2-fluoro-3-pyridinyl)-5,6-dihydrospiro[1,3-oxazine-4,9′-xanthen]-2-amine], in experiment [1] (Abeta 40, rat CSF), the “% reduction of rat CSF levels” value came out at 53% at 30 mpk. For the same compound, in experiment [1] (Abeta 40, rat brain), the “% reduction of rat brain levels” value turned out to be 26% at 30 mpk. For the same compound, the IC50 in experiment [2] is 4.4 nM; in experiment [3] (setting [7]), 9.6 nM.
`NC1=N[C@@]2(CCS1)c1cc(-c3cccnc3F)ccc1Oc1c(F)cc(C3=CCCOC3)cc12` [Example 201, (S)-2′-(5,6-dihydro-2H-pyran-3-yl)-4′-fluoro-7′-(2-fluoropyridin-3-yl)-5,6-dihydrospiro[[1,3]thiazine-4,9′-xanthen]-2-amine]: the “% reduction of rat CSF levels” value in experiment [1] (Abeta 40, rat CSF) is 80% at 30 mpk. Besides, in experiment [1] (Abeta 40, rat brain), the “% reduction of rat brain levels” value was 65% at 30 mpk. The IC50 in experiment [2] was determined as 1.4 nM; in experiment [3] (setting [7]), 9.7 nM.
On to `NC1=N[C@@]2(COC1)c1cc(-c3cc(F)ccc3F)ccc1Oc1ncc(-c3ccnc(F)c3)cc12` [Example 220, (S)-7-(2,5-difluorophenyl)-3-(2-fluoropyridin-4-yl)-2′,6′-dihydrospiro[chromeno[2,3-b]pyridine-5,3′-[1,4]oxazin]-5′-amine], for which the inhibition in vivo at 10 mg/kg in experiment [1] (setting [4]) came to 38%; in experiment [1] (setting [5]), 2%. The IC50 in experiment [2] came to 2 nM; in experiment [3] (setting [7]) it was 4.4 nM.
Turning to `NC1=N[C@@]2(CCO1)c1cc(-c3cncc(F)c3)ccc1Oc1c2cc(-c2ccnc(F)c2)nc1F` [Example 226, (S)-1-fluoro-7-(5-fluoropyridin-3-yl)-3-(2-fluoropyridin-4-yl)-5′,6′-dihydrospiro[chromeno[2,3-c]pyridine-5,4′-[1,3]oxazin]-2′-amine], the inhibition in vivo at 10 mg/kg came out at 83% in experiment [1] (setting [4]) and 74% in experiment [1] (setting [5]). Moreover, the IC50 in experiment [2] is 1.4 nM; in experiment [3] (setting [7]) it was 1.6 nM.
